We go through 32 compounds from US9074014B2 (Ipsen Pharma S.A.S., priority 2008, dated 2015).

Series [1] has as its target T1, human recombinant GIP receptor (Homo sapiens, UniProt P48546).
T1 construct: expressed in transfected cells; host or cells: CHO-K1 clonal cells (membranes)
T1 sequence (P48546 22-466): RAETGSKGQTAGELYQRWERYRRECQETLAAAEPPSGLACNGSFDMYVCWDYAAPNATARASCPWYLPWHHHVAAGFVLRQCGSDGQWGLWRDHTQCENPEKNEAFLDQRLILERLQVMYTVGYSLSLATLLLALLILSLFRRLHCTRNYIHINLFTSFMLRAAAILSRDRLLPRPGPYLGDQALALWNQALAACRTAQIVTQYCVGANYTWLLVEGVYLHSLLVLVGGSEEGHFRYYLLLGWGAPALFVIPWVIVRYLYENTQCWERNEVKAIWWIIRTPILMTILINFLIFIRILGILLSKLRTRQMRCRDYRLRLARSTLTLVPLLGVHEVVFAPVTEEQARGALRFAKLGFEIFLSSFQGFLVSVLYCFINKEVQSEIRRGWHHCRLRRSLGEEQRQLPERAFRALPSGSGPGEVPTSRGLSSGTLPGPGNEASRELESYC
Nature of the series: In vitro hGIP receptor binding assay ([125I]GIP displacement, CHO-K1 membranes). An excerpt:
A. In Vitro hGIP Receptor Binding Assay

Series [2] is described as follows: Rat plasma half-life assay. It is filed as in vitro ADME. As to conditions: rat plasma, 37° C., LC-MS; for half-life at 0.1 mg/ml: read-out: Rat Plasma T½ (converted).
A short description of series [3]: Human plasma half-life assay. It is filed as in vitro ADME. The following applies: human plasma, 37° C., LC-MS; read-out: Human Plasma T½ (converted).

Where a SMILES comes first, the peptide text is derived from it. Where no end group is shown, it is not given here. [ ]: non-standard residue; d: D form. The star is where a group is joined. Myristoyl = CCCCCCCCCCCCCC(=O)*; Ac6c = NC1(C(=O)O)CCCCC1; Nle = CCCC[C@H](N)C(=O)O; Orn = NCCC[C@H](N)C(=O)O; X1 = CCCN1C(=O)CC(*)C1=O; Ac5c = NC1(C(=O)O)CCCC1; Aib = CC(C)(N)C(=O)O Where only a bound is given, the exact number is not on record here.

As to `CC[C@H](C)[C@H](NC(=O)[C@H](CCCCN)NC(=O)[C@H](CC(=O)O)NC(=O)[C@H](CCSC)NC(=O)[C@H](C)NC(=O)[C@@H](NC(=O)C1(NC(=O)[C@H](Cc2ccc(O)cc2)NC(=O)[C@H](CC(=O)O)NC(=O)[C@H](CO)NC(=O)[C@@H](NC(=O)[C@H](Cc2ccccc2)NC(=O)[C@@H](NC(=O)CNC(=O)[C@@H]2CCCN2C(=O)[C@H](C)NC(=O)[C@@H](N)Cc2ccc(O)cc2)[C@@H](C)O)[C@@H](C)CC)CCCC1)[C@@H](C)CC)C(=O)N[C@@H](Cc1c[nH]cn1)C(=O)N[C@@H](CCC(N)=O)C(=O)N[C@@H](CCC(N)=O)C(=O)N[C@@H](CC(=O)O)C(=O)N[C@@H](Cc1ccccc1)C(=O)N[C@H](C(=O)N[C@@H](CC(N)=O)C(=O)N[C@@H](Cc1c[nH]c2ccccc12)C(=O)N[C@@H](CC(C)C)C(=O)N[C@@H](CC(C)C)C(=O)N[C@@H](C)C(=O)N[C@@H](CCC(N)=O)C(=O)N[C@@H](CCCCN)C(N)=O)C(C)C` [Example 98, (Pro^3, A5c^11)hGIP(1-30)-NH2] (H-YAPGTFISDY[Ac5c]IAMDKIHQQDFVNWLLAQK-NH2; N-terminus assumed), the Ki in series [1] was determined as 65.9 nM. For the compound “Y[Aib]EGTFISDY[Ac5c]IA[Ac6c]DKIHQQDFVNWLLAQKGKKNDWKHNITQ-OH [Example 61, (Aib^2, A5c^11, A6c^14)hGIP(1-42)-OH]”, the results for the half-life at 0.1 mg/ml in series [2] and in series [3] were 2720 min and more than 2880 min, respectively. With “Y[Aib]EGTFISDY[Ac5c]IA[Nle]DKIHQQDFVNWLLAQKGKKNDWKHNITQ-OH [Example 54, (Aib^2, A5c^11, Nle^14)hGIP(1-42)-OH]”, the results for the half-life at 0.1 mg/ml in series [2] and in series [3] were 2650 min and more than 3360 min, respectively.

For the compound “Y[Aib]EGTFISDY[Aib]IAMDKIHQQDFVNWLLAQKGKKNDWKHNITQ-OH [Example 1, (Aib^2, 11)hGIP(1-42)-OH]”, the half-life at 0.1 mg/ml in series [2] was 234 min; in series [3] it was more than 2880 min. On to “Y[Aib]EGTFISDY[Aib]IA[Nle]DKIHQQDFVNWLLAQKGKKNDWKHNITQ-OH [Example 45, (Aib^2, 11, Nle^14)hGIP(1-42)-OH]”, for which the results for the half-life at 0.1 mg/ml in series [2] and in series [3] were 696 min and 1090 min, respectively. On to “Y[Aib]EGTFIS[Aib]YSIAMDKIHQQDFVNWLLAQKGKKNDWKHNITQ-OH [Example 2, (Aib^2, 9)hGIP(1-42)-OH]”, for which the values for the half-life at 0.1 mg/ml in series [2] and in series [3] were 336 min and 564 min, respectively.

As for “Y[Aib]EGTFI[Aib]DYSIAMDKIHQQDFVNWLLAQKGKKNDWKHNITQ-OH [Example 9, (Aib^2, 8)hGIP(1-42)-OH]”, the half-life at 0.1 mg/ml in series [2] was 552 min; in series [3] it was more than 2880 min. As for “Y[Aib]EGTF[Ac5c]SDYSIAMDKIHQQDFVNWLLAQKGKKNDWKHNITQ-OH [Example 6, (Aib^2, A5c^7)hGIP(1-42)-OH]”, the results for the half-life at 0.1 mg/ml in series [2] and in series [3] were 516 min and more than 2880 min, respectively. “Y[Aib]EGTF[Ac5c]SDYSIA[Ac5c]DKIHQQDFVNWLLAQKGKKNDWKHNITQ-OH [Example 59, (Aib^2, A5c^7, 14)hGIP(1-42)-OH]”: the half-life at 0.1 mg/ml in series [2] was 786 min; in series [3], 1440 min. In the case of “Y[Aib]EGTF[Ac5c]SDYSIA[Ac6c]DKIHQQDFVNWLLAQKGKKNDWKHNITQ-OH [Example 44, (Aib^2, A5c^7, A6c^14)hGIP(1-42)-OH]”, the results for the half-life at 0.1 mg/ml in series [2] and in series [3] were 450 min and 570 min, respectively.

In the case of “Y[Aib]EGTF[Ac5c]SDYSIA[Nle]DKIHQQDFVNWLLAQKGKKNDWKHNITQ-OH [Example 58, (Aib^2, A5c^7, Nle^14)hGIP(1-42)-OH]”, the figures for the half-life at 0.1 mg/ml in series [2] and in series [3] were 1000 min and 2260 min, respectively.

Regarding “Y[Aib]EGTF[Ac6c]SDYSIAMDKIHQQDFVNWLLAQKC(X1)KKNDWKHNITQ-OH [Example 90, [Aib^2, A6c^7, Cys(Psu)^31]hGIP(1-42)-OH]”, the half-life at 0.1 mg/ml in series [2] is 288 min; in series [3] it was 678 min.

With “Y[Aib]EGTF[Ac6c]SDYSIAMDKIHQQDFVNWLLAQKGKKC(X1)DWKHNITQ-OH [Example 86, [Aib^2, A6c^7, Cys(Psu)^34]hGIP(1-42)-OH]”, the half-life at 0.1 mg/ml in series [2] is 420 min; in series [3], 252 min. “Y[Aib]EGTF[Ac6c]SDYSIAMDKIHQQDFVNWLLAQKGKKNC(X1)WKHNITQ-OH [Example 85, [Aib^2, A6c^7, Cys(Psu)^35]hGIP(1-42)-OH]”: the half-life at 0.1 mg/ml in series [2] is 210 min; in series [3], 438 min. Regarding “Y[Aib]EGTF[Ac6c]SDYSIAMDKIHQQDFVNWLLAQKGKKNDC(X1)KHNITQ-OH [Example 81, [Aib^2, A6c^7, Cys(Psu)^36]hGIP(1-42)-OH]”, the half-life at 0.1 mg/ml in series [2] was 366 min; in series [3], 492 min.

For the compound “Y[Aib]EGTF[Ac6c]SDYSIAMDKIHQQDFVNWLLAQKGKKNDWKC(X1)NITQ-OH [Example 80, [Aib^2, A6c^7, Cys(Psu)^38]hGIP(1-42)-OH]”, the half-life at 0.1 mg/ml in series [2] was 330 min; in series [3], more than 3240 min. Regarding “Y[Aib]EGTF[Ac6c]SDYSIAMDKIHQQDFVNWLLAQKGKKNDWKHNC(X1)TQ-OH [Example 78, [Aib^2, A6c^7, Cys(Psu)^40]hGIP(1-42)-OH]”, the half-life at 0.1 mg/ml in series [2] was 672 min; in series [3], 606 min. On to “Y[Aib]EGTF[Ac6c]SDYSIAMDKIHQQDFVNWLLAQK[Aib]KKNDWKHNITQ-OH [Example 22, (Aib^2, 31, A6c^7)hGIP(1-42)-OH]”, for which the half-life at 0.1 mg/ml in series [2] was 852 min; in series [3], more than 2880 min. Take “Y[Aib]EGTF[Ac6c]SDYSIA[Nle]DKIHQQDFVNWLLAQKGKKNDWKHNITQ-OH [Example 55, (Aib^2, A6c^7, Nle^14)hGIP(1-42)-OH]”: the results for the half-life at 0.1 mg/ml in series [2] and in series [3] were 702 min and 528 min, respectively. The corresponding values for “Y[Aib]EGTF[Ac6c]SDYSIA[Nle]DKIHQQDFVNWLLAQKGKKNDWKHNI[Ac6c]Q-OH [Example 29, (Aib^2, A6c^7, 41, Nle^14)hGIP(1-42)-OH]” are 438 min and more than 2880 min.

As to “Y[Aib]EGTF[Ac6c]SDYSIA[Nle]DKIHQQDFVNWLLAQKGKKNDWKHNI[Aib]Q-OH [Example 25, (Aib^2, 41, A6c^7, Nle^14)hGIP(1-42)-OH]”, the half-life at 0.1 mg/ml in series [2] was 504 min; in series [3] it was more than 2880 min.

With “Y[Aib]EGTF[Ac6c]SDYSIA[Nle]DKIHQQDFVNWLLAQKGKKNDWKHN[Ac6c]TQ-OH [Example 28, (Aib^2, A6c^7, 40, Nle^14)hGIP(1-42)-OH]”, the half-life at 0.1 mg/ml is 696 min in series [2] and more than 2880 min in series [3]. The corresponding values for “Y[Aib]EGTF[Ac6c]SDYSIA[Nle]DKIHQQDFVNWLLAQK[Aib]KKNDWKHNITQ-OH [Example 24, (Aib^2, 31, A6c^7, Nle^14)hGIP(1-42)-OH]” are 1490 min and more than 2880 min.

Turning to “Y[Aib]EGTF[Ac6c]SDYSIA[Nle]DKIHQQDFVNWLL[Aib]QKGKKNDWKHNITQ-OH [Example 30, (Aib^2, 28, A6c^7, Nle^14)hGIP(1-42)-OH]”, the half-life at 0.1 mg/ml was 804 min in series [2] and more than 2880 min in series [3]. Regarding “Y[Aib]EGTF[Ac6c]SDYSIA[Nle]DKIHQQDFVNWL[Ac6c]AQKGKKNDWKHNITQ-OH [Example 27, (Aib^2, A6c^7, 27, Nle^14)hGIP(1-42)-OH]”, the half-life at 0.1 mg/ml in series [2] is 558 min; in series [3], more than 2880 min. Take “Y[Aib]EGTF[Ac6c]SDYSIA[Nle]DK[Ac6c]HQQDFVNWLLAQKGKKNDWKHNITQ-OH [Example 37, (Aib^2, A6c^7, 17, Nle^14)hGIP(1-42)-OH]”: the half-life at 0.1 mg/ml in series [2] is 840 min; in series [3], more than 2880 min. On to “Y[Aib]EGTF[Aib]SDYSIAMDKIHQQDFVNWLLAQKGKKNDWKHNITQ-OH [Example 3, (Aib^2, 7)hGIP(1-42)-OH]”, for which the half-life at 0.1 mg/ml in series [2] was 330 min; in series [3], more than 2880 min. For “Y[Aib]EG[Ac5c]FISDYSIAMDKIHQQDFVNWLLAQKGKKNDWKHNITQ-OH [Example 5, (Aib^2, A5c^5)hGIP(1-42)-OH]”, in that order: 366 min and more than 2880 min.

Regarding “Y[Aib]EG[Aib]FISDYSIAMDKIHQQDFVNWLLAQKGKKNDWKHNITQ-OH [Example 4, (Aib^2, 5)hGIP(1-42)-OH]”, the half-life at 0.1 mg/ml in series [2] is 288 min; in series [3], more than 2880 min. As to “Y[Aib]E[Aib]TFISDYSIAMDKIHQQDFVNWLLAQKGKKNDWKHNITQ-OH [Example 10, (Aib^2, 4)hGIP(1-42)-OH]”, the half-life at 0.1 mg/ml was 240 min in series [2] and more than 2880 min in series [3].

On to “Y[dA]EGTFISDY[Ac5c]IAMDKIHQQDFVNWLLAQKGKKNDWKHN[Ac5c]TQ-OH [Example 104, (D-Ala^2, A5c^11,40)hGIP(1-42)-OH]”, for which the half-life at 0.1 mg/ml in series [2] was 888 min; in series [3], 1210 min. In the case of “[Orn](Myristoyl)AEGTF[Ac6c]SDYSIAMDKIHQQDFVNWLLAQKGKKNDWKHNITQ-OH [Example 103, [Orn^1(N—C(O)—(CH2)12—CH3), A6c^7]hGIP(1-42)-OH]”, the half-life is more than 3 days in series [2] (read-out: Rat Plasma T½) and 408 min in series [3].
